In a melting point compilation (Tetko et al.; mined from patent text by program, amines drawn as free bases though some values may be those of a salt):

| Structure (SMILES) | melting point |
| --- | --- |
| CC(C)(O)CNc1c([N+](=O)[O-])cnc2cccnc12 | 184 to 186 °C |
| O=C(O)C1Cc2c(ncn2CCc2ccccc2)CN1C(=O)Cc1ccccc1 (centres undefined) | 215 to 220 °C |
| NC(=O)c1c(F)ccc(OCC(=O)O)c1F | 152 to 153 °C |
| c1ccc(Cc2cnc(-c3ccccc3)c(-c3ccccc3)n2)cc1 | 118 to 119 °C |
| O=C1CCc2cc(C3=NNC(=O)C4CCC34)ccc2N1 (centres undefined) | 349 to 353 °C |
| CC1(C)CCN(C(=O)NCc2ccccc2)c2cc(C#N)ccc21 | 114 to 115 °C |
| CC(C)(C)OC(=O)NC(Cc1ccccc1)C(=O)Oc1ccc2ccccc2c1 (centres undefined) | 118 to 119 °C |
| CNc1nc(-c2cccc(NC(=O)c3ccc(Cl)c(Cl)c3)c2)c2cc(OC)c(OC)cc2n1 | 134 to 136 °C |
| COc1ccc2[nH]c(-c3cc(C)c(O)c(C)c3)c(C)c2c1 | 158 to 159 °C |
| O=C(c1ccccc1)c1nc2ncccc2o1 | 151 to 153 °C |
| CN(C)C1CC=C(c2ccccc2Cc2ccccc2)CC1 (centres undefined) | 44 to 45 °C |
| CC(C)(C)OC(=O)C=C1CN=C(c2ccccc2F)c2cc(Cl)ccc2N1 | 158 to 160 °C |
| COc1ccc(C2CC(=O)N(c3c(C)c(C)c4c(c3C)[C@@H](c3ccc(C)cc3)C(C)(C)O4)C(=O)C2)cc1 | 207 to 209 °C |
| COCCNC(=O)c1cccc(-c2ccc3c(c2)N(c2ccc(Cl)cc2Cl)CC3)c1 | 119 to 120 °C |
| COc1ccccc1C(=O)c1cccc2c1ccn2C | 74 °C |
| CC(C)(COCc1cccc(Oc2ccccc2)c1)c1ccccc1C(=O)O | 98.5 to 102 °C |
| CCCCN1C[C@H](CO)[C@@H](O)[C@H](O)C1 | 94 to 95 °C |
| CCOc1cccc(C(O)c2ncccc2OC)c1 (centres undefined) | 104 to 106 °C |
| CCCCNc1n[nH]c(C)c1C(=O)OCC | 109 to 110 °C |
| CC(C)C[C@@H](CC=O)NC(=O)[C@H](Cc1c[nH]cn1)NC(=O)[C@H](Cc1ccccc1)NC(=O)OCc1ccccc1 | 173 to 175 °C |
| CC(C)(C)OC(=O)NCc1ccc(C(=O)NNC(=O)OCc2ccccc2)cc1 | 160 to 162 °C |
| O=C1CCc2cc3[nH]c(-c4ccncc4)nc3cc2N1 | 285 to 288 °C |
| COc1ccccc1SC(c1ccccc1)c1c(O)cc(-c2ccccc2)oc1=O (centres undefined) | 165 to 170 °C |
| O=C1CNC(SCc2ccccn2)=N1 | 105 to 107 °C |
| O=Cc1ccccc1C(=O)c1ccccc1 | 64 to 67 °C |
| CC(C)(C)NCC(O)COc1cccc2nsnc12 (centres undefined) | 89 to 91 °C |

| Structure (SMILES) | melting point |
| --- | --- |
| CCOC(=O)C1CCN(c2cc(-c3ccc(Cl)cc3)nc3ccccc23)CC1 | 124 to 126 °C |
| CC(C)(C)c1ccc(CN2C(=O)N(c3ccccc3)CSC2=NCC(F)(F)F)cc1 | 113 to 114 °C |
| O=C(O)CC(NC(=O)c1ccccc1)c1ccccc1F (centres undefined) | 202 to 205 °C |
| CN1CCN(c2ccc3nc(-c4ccc(F)cc4)c(I)n3n2)CC1 | 180 °C |
| CSCC(=O)[C@H](Cc1ccccc1)NC(=O)[C@H](CC(C)C)NS(=O)(=O)c1ccccc1 | 133 to 136 °C |
| CCc1cc(=O)c2ccc(O)cc2o1 | 189 °C |
| CCCCCCCCCCCC12OC(C)CN1CC(C)O2 (centres undefined) | > 130 °C |
| Cc1noc(C)c1CON1C(=O)c2ccccc2C1=O | 144 to 146 °C |
| CCOC(=O)C1=CC(C)(C(=O)N(C)C)SC1N (centres undefined) | 122 to 124 °C |
| COC(=O)COc1ccc(C(=O)C(C)C)cc1 | 45 to 46 °C |
| COc1cc(Oc2ccc(S(C)(=O)=O)nc2)cc2cc(C3=NCC(CC(=O)N(C)C)S3)[nH]c12 (centres undefined) | 206 to 207 °C |
| O=[N+]([O-])c1ccc(-c2ccc3nncn3n2)cc1C(F)(F)F | 129 to 135 °C |
| CC1(c2ccccc2)OC(=O)Nc2ccc(-c3cccc(Cl)c3)cc21 (centres undefined) | 179 to 180 °C |
| OC(COc1ccc(Cl)cc1)CSCc1ccc(Cl)cc1 (centres undefined) | 107 to 108 °C |
| CCNC(=O)CCCNC(=O)OC(C)(C)C | 82 to 83 °C |
| CCCCc1oc2ccccc2c1C(=O)c1nc(Br)c(-c2ccc(OC)cc2)o1 | 62 to 64 °C |
| Cc1c(C(=O)N[C@@H]2CN3CCC2CC3)c2ccccc2n1C | 176 to 177 °C |
| O=C(O)c1ccc2c(c1)Sc1ccccc1C=C2 | 251 to 254 °C |
| COC(=O)c1cn2c(n1)COc1c(OC)cccc1-2 | 188 to 190 °C |
| CCOC(=O)c1cnc2nc(C(=O)O)c(OCC)cc2c1O | 270 to 272 °C |
| Oc1ccc(C2OCCO2)cc1Br | 76 to 78 °C |
| CCOC(=O)c1cn(-c2c(F)cc(F)cc2F)c2nc(Cl)c(F)cc2c1=O | 158 to 160 °C |
| COc1ccc(OCc2nc(N)c3nccnc3n2)cc1 | 238 to 240 °C |
| CC(=O)Nc1cc2c(cc1[N+](=O)[O-])OC(C)O2 (centres undefined) | 112 to 113 °C |
| O=S1(=O)c2cccc3cccc(c23)N1CCCN1CC=C(c2ccc(O)cc2)CC1 | 198 °C |
| COc1ccc(C#N)cc1-c1cc(-c2ccc(C#N)cc2[N+](=O)[O-])no1 | 264 to 266 °C |

| Structure (SMILES) | melting point |
| --- | --- |
| O=C1N=c2ccc(C3(c4nc5ccc(-c6ccccc6)cc5[nH]4)N=c4ccccc4=N3)cc2=NC1=O | > 280 °C |
| CSC(C)(C)C(=O)N[C@@H](CSSC[C@H](NC(=O)C(C)(C)SC)C(=O)O)C(=O)O | 128 to 129 °C |
| CCOc1cc2cc(CO)nc(-c3ccc(Cl)c([N+](=O)[O-])c3)c2cc1OCC | 187 to 188 °C |
| NC(=O)CC(CC(N)=O)c1cccc(F)c1 | 194 to 196 °C |
| COc1cc(C(=O)CBr)cc(C#N)c1OC | 138 to 141 °C |
| CC(C)(C)OCCCC1c2ccccc2COc2cccc(O)c21 (centres undefined) | 113 to 115 °C |
| CCOc1ccc(-c2nc(CCC(=O)O)cs2)cc1OCC | 111 to 114 °C |
| O=C(Oc1ccc(-c2ccccc2)cc1)Oc1ccc([N+](=O)[O-])cc1 | 138 to 140 °C |
| O=c1ccc2c(O)cc(O)cc2[nH]1 | > 300 °C |
| O=C(CC(O)(c1cc(Cl)cc(Cl)c1)C(F)(F)F)c1ccc(Br)c2ccccc12 (centres undefined) | 74.5 to 75 °C |
| O=C(O)CN1C(=O)C(=Cc2ccc(OCc3ccccc3)c(OCc3ccccn3)c2)SC1=S | 204 to 207 °C |
| CCCc1cc(O)nc(SC)n1 | 158 °C |
| O=c1oc(-c2ccc(OCCO)cc2)cc(O)c1SCCc1ccccc1 | 123 to 125 °C |
| CNc1c(Cl)cc2c3c(cccc13)C(=O)N(C1CCN(C)CC1)C2=O | 298 to 302 °C |
| OCCSc1nc2ccc(Cc3ccccc3)cc2[nH]1 | 108 to 109 °C |
| O=C(/C=C/c1ccn(S(=O)(=O)c2ccc(CN3CCOCC3)cc2)c1)NO | 168 to 170 °C |
| COc1ccc(-n2cnc3ccc(-c4nnc(NCc5cccc(F)c5)o4)cc32)cc1 | 164 to 166 °C |
| O=C(NCc1ccccn1)c1cc(C(F)(F)F)cc(C(F)(F)F)c1 | 123 to 124 °C |
| CC(C)(C)OC(=O)N[C@H]1CC[C@@H](OS(C)(=O)=O)C1 | 88 to 89 °C |
| CC(Oc1cccc(C(=O)NCCN(O)C(N)=O)c1)c1ccccc1 (centres undefined) | 164 to 165 °C |
| O=S(=O)(c1ccccc1)n1cc(-c2ccnc(N[C@H]3CC[C@H](O)CC3)n2)c2ccccc21 | 132 to 133 °C |
| CCCSc1sc(C(=O)OCC)c2c1C(=O)C(NC(=O)CC)CC2 (centres undefined) | 191 to 192 °C |
| CCNc1ncc2ccc(=O)n(-c3ccccc3)c2n1 | 193 to 195 °C |
| Cc1c(C)c2c(c(C)c1OC(=O)CCC(=O)O)C(c1ccc(C(C)C)cc1)C(C)(C)O2 (centres undefined) | 141 to 142 °C |
| CC(O)c1cc(I)c(O)c(Cl)n1 (centres undefined) | 114 to 116 °C |
| CCOC(=O)COCCn1c(=O)[nH]c2ccccc2c1=O | 115 to 116 °C |

| Structure (SMILES) | melting point |
| --- | --- |
| Cc1c(C)c(C2CC(=O)C=C(O)C2)c(C)c2c1CC(C)(C)O2 (centres undefined) | 121 to 123 °C |
| COc1nc(CC(=O)O)c([N+](=O)[O-])cc1C | 135 to 137 °C |
| COc1ccc(C(=O)NCCn2c(C)ccc2C)cc1OC | 82 to 84 °C |
| O=c1[nH]c(=O)n(C2OC(CO)C(O)C2F)cc1Br (centres undefined) | 214 to 216 °C |
| CCN1c2ncc(OCc3ccccc3)cc2C(=O)N(C)c2ccc(Cl)nc21 | 159 to 160 °C |
| CC(=O)CC(=O)Nc1ccc(C(F)(F)F)cc1 | 144 to 145 °C |
| CS(=O)(=O)c1cncc(-c2nc(=O)c3ccccc3s2)n1 | 232 to 233 °C |
| CCOC(=O)c1cnc(N2CCn3ccnc3C2)nc1NCc1ccc(OC)c(Cl)c1 | 179 to 182 °C |
| C#Cc1cc(Nc2ncnc3cnc(NCc4ccc(OC)cc4)cc23)ccc1Cl | 201 to 203 °C |
| COc1cc(Cc2nccc3c(OC(C)=O)cc(OC(C)=O)cc23)cc(OC)c1OC | 118 to 120 °C |
| CCCCCCNc1cccc2c1C(=O)c1cccc(NCCCCCC)c1C2=O | 142 to 144 °C |
| O=[N+]([O-])c1ccccc1Oc1ccc(OCc2ccc(F)c(F)c2)cc1 | 74 to 75 °C |
| COc1cc(CC(=O)O)cc2c1C(=O)c1ccccc1CC2 | 189 to 199 °C |
| CCc1oc2ccccc2c1C(=O)c1ccc(OCCO)cc1 | 78 to 83 °C |
| CC(C)(C)OC(=O)N1CCN(C(=O)c2cc(C(F)(F)F)cc(C(F)(F)F)c2)[C@H](Cc2c[nH]c3ccccc23)C1 | 155 to 156 °C |
| Cc1cccc(NC(=O)NCC(=O)N2C(Cc3ccccc3)SC[C@H]2C(=O)OC(C)(C)C)c1 (some centres undefined) | 104 °C |
| O=C(c1cc[nH]c1)c1ccc2ccccc2c1 | 134 to 136 °C |
| CCOC(=O)c1ccc(-c2ncc(-c3ccc(Cl)cc3)s2)cc1 | 167 to 168 °C |
| CCCCOC(=O)COc1cc(F)c([N+](=O)[O-])cc1[N+](=O)[O-] | 113 to 115 °C |
| CC(O)C(Oc1ccc(NC(=O)NC(=O)c2ccccc2Cl)cc1)c1ccccc1 (centres undefined) | 142 to 144 °C |
| CC(C)C[C@H](OC(=O)N1CCCCCC1)C(=O)O | 86 to 88 °C |
| Cc1nc(Sc2ccc(N)cc2)nc(C)c1Cl | 160 to 161 °C |
| CSCCOc1ccc(OCC(O)CO)cc1 (centres undefined) | 59 to 61 °C |
| COC(=O)c1ccc(OCCCOc2c(C)c(C)c(C(=O)Oc3c(C)c(C)c(C(N)=O)c(OC)c3C)c(OC)c2C)cc1 | 202 to 204 °C |
| CC1(C)CC(=O)C(C(=S)Nc2ccc(Cl)c(Cl)c2)C(=O)C1 | 113 to 116 °C |
| COc1ccc(OCc2ccccc2)cc1C=O | 99 to 100 °C |
